# Assay results reported in patent US6737383B1, “Herbicidal oxadiazolidines” (priority 1999, dated 2004).
# How the values were obtained:
# bedstraw = experiment: Test B pre/postemergence bedstraw; assay type: in vivo, Galium aparine
# Summary of the method: (§1)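 Response is a visual 0-to-10 score relative to untreated plants, where 0 means no effect and 10 means complete control, taken twelve to sixteen days after application. Treatments went onto soil at planting and onto foliage of 1- to 4-leaf plants, using a surfactant-containing non-phytotoxic solvent.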
# blackgrass = experiment: Test B pre/postemergence blackgrass; assay type: in vivo, Alopecurus myosuroides
# Summary of the method: as §1
# surinam grass = experiment: Test B pre/postemergence surinam grass; assay type: in vivo, Brachiaria decumbens
# Summary of the method: as §1
# cocklebur = experiment: Test B pre/postemergence cocklebur; assay type: in vivo, Xanthium strumarium
# Summary of the method: as §1
# corn = experiment: Test B pre/postemergence corn; assay type: in vivo, Zea mays
# Summary of the method: as §1
# crabgrass = experiment: Test B pre/postemergence crabgrass; assay type: in vivo, Digitaria sanguinalis
# Summary of the method: as §1
# rape = experiment: Test B pre/postemergence rape; assay type: in vivo, Brassica napus
# Summary of the method: as §1
# soybean = experiment: Test B pre/postemergence soybean; assay type: in vivo, Glycine max
# Summary of the method: as §1
# sugar beet = experiment: Test B pre/postemergence sugar beet; assay type: in vivo, Beta vulgaris; details: for Plant response rating, Sugarbeets: Rate 250 g/ha
# Summary of the method: as §1
# velvetleaf = experiment: Test B pre/postemergence velvetleaf; assay type: in vivo, Abutilon theophrasti; details: for Plant response rating, Velvetleaf: Rate 250 g/ha
# Summary of the method: as §1
# wheat = experiment: Test B pre/postemergence wheat; assay type: in vivo, Triticum aestivum; details: for Plant response rating, Wheat: Rate 250 g/ha
# Summary of the method: as §1
# wild oat = experiment: Test B pre/postemergence wild oat; assay type: in vivo, Avena fatua; details: for Plant response rating, Wild oats: Rate 250 g/ha
# Summary of the method: as §1
# purple nutsedge = experiment: Test B pre/postemergence purple nutsedge; assay type: in vivo, Cyperus rotundus
# Summary of the method: as §1
# rice = experiment: Test B flood test rice; assay type: in vivo, Oryza sativa
# Summary of the method: (§2)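 Plants were grown to the 2-leaf stage before treatment with test chemical, then held in a greenhouse for twelve to sixteen days. Injury was visually rated against untreated controls on a 0–10 scale, where 0 is no effect and 10 is complete control.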
# smallflower flatsedge = experiment: Test B flood test smallflower flatsedge; assay type: in vivo, Cyperus difformis
# Summary of the method: as §2
# duck salad = experiment: Test B flood test duck salad; assay type: in vivo, Heteranthera limosa
# Summary of the method: as §2
# bamyardgrass = experiment: Test B flood test barnyardgrass; assay type: in vivo, Echinochloa crus-galli
# Summary of the method: as §2
# [1] = Postemergence, Rate 62 g/ha, scale 0 to 10, 0 is no effect, 10 is complete control
# [2] = Postemergence, Rate 250 g/ha, scale 0 to 10, 0 no effect, 10 complete control
# [3] = Preemergence, Rate 62 g/ha, scale 0 to 10 (0 no effect, 10 complete control)
# [4] = Preemergence, Rate 125 g/ha, scale 0 to 10 (0 no effect, 10 complete control)
# [5] = Preemergence, Rate 250 g/ha, scale of 0 to 10 where 0 is no effect and 10 is complete control
# [6] = Preemergence, Rate 500 g/ha, scale 0 to 10 (0 no effect, 10 complete control)
# [7] = Rate 125 g/ha, Postemergence, scale 0 to 10, 0 no effect, 10 complete control
# [8] = Postemergence, Rate 125 g/ha, scale of 0 to 10 where 0 is no effect and 10 is complete control
# [9] = Rate 62 g/ha, Postemergence, scale of 0 to 10 where 0 is no effect and 10 is complete control
# [10] = Rate 500 g/ha, Postemergence, scale 0 to 10, 0 no effect, 10 complete control
# [11] = Preemergence, Rate 125 g/ha, 0 is no effect, 10 is complete control
# [12] = Preemergence, scale of 0 to 10 where 0 is no effect and 10 is complete control
# [13] = Postemergence, scale 0 to 10, 0 is no effect, 10 is complete control
# [14] = Postemergence (flood test species), Rate 125 g/ha, scale of 0 to 10 where 0 is no effect and 10 is complete control
# [15] = Rate 62 g/ha, Postemergence section, flood test species, scale of 0 to 10 where 0 is no effect and 10 is complete control
# [16] = Rate 250 g/ha, Postemergence (flood test), scale 0 to 10, 0 is no effect, 10 is complete control
# [17] = Rate 250 g/ha, headed Pre-emergence (flood test species), scale 0 to 10 (0 no effect, 10 complete control)
# [18] = Rate 500 g/ha, headed Pre-emergence (flood test species), scale 0 to 10 (0 no effect, 10 complete control)
# [19] = Rate 500 g/ha, listed under Postemergence (flood test species), scale 0 to 10, 0 no effect, 10 complete control
# [20] = Rate 1000 g/ha, Pre-emergence (as headed), scale 0 to 10
# [21] = Rate 2000 g/ha, Pre-emergence (as headed), scale 0 to 10
# [22] = flood test, listed under Postemergence, Rate 250 g/ha, scale 0 to 10, 0 no effect, 10 complete control
structure (smiles),measurement,setting,value
CCn1c(=O)on(C(=O)N(c2ccc(F)cc2F)C(C)C)c1=O [Compound 116],Bedstraw plant response rating,bedstraw; [1],0
same,Bedstraw plant response rating,bedstraw; [2],9
same,Bedstraw plant response rating,bedstraw; [3],2
same,"Plant response rating, Bedstraw",bedstraw; [4],8
same,"Plant response rating, Bedstraw",bedstraw; [5],9
same,Bedstraw plant response rating,bedstraw; [6],9
same,Bedstraw plant response rating,bedstraw; [7],6
same,Blackgrass plant response rating,blackgrass; [8],9
same,Blackgrass plant response rating,blackgrass; [2],9
same,Blackgrass plant response rating,blackgrass; [3],9
same,"Plant response rating, Blackgrass",blackgrass; [4],9
same,"Plant response rating, Blackgrass",blackgrass; [5],10
same,Blackgrass plant response rating,blackgrass; [6],10
same,Blackgrass plant response rating,blackgrass; [9],9
same,Blackgrass plant response rating,blackgrass; [10],9
same,B. signalgrass plant response rating,surinam grass; [1],8
same,B. signalgrass plant response rating,surinam grass; [2],9
same,B. signalgrass plant response rating,surinam grass; [3],4
same,"Plant response rating, B. signalgrass",surinam grass; [4],8
same,"Plant response rating, B. signalgrass",surinam grass; [5],10
same,B. signalgrass plant response rating,surinam grass; [6],10
same,B. signalgrass plant response rating,surinam grass; [7],9
same,B. signalgrass plant response rating,"surinam grass; Rate 500 g/ha, Postemergence, scale of 0 to 10 where 0 is no effect and 10 is complete control",9
same,Cocklebur plant response rating,cocklebur; [8],0
same,Cocklebur plant response rating,cocklebur; [2],3
same,Cocklebur plant response rating,cocklebur; [3],0
same,"Plant response rating, Cocklebur",cocklebur; [4],0
same,"Plant response rating, Cocklebur",cocklebur; [5],0
same,Cocklebur plant response rating,cocklebur; [6],5
same,Cocklebur plant response rating,cocklebur; [9],0
same,Cocklebur plant response rating,cocklebur; [10],5
same,Corn plant response rating,corn; [8],0
same,Corn plant response rating,corn; [2],2
same,Corn plant response rating,corn; [3],0
same,"Plant response rating, Corn",corn; [4],2
same,"Plant response rating, Corn",corn; [5],6
same,Corn plant response rating,corn; [6],9
same,Corn plant response rating,corn; [9],0
same,Corn plant response rating,corn; [10],7
same,Crabgrass plant response rating,crabgrass; [8],9
same,Crabgrass plant response rating,crabgrass; [2],9
same,Crabgrass plant response rating,crabgrass; [3],8
same,"Plant response rating, Crabgrass",crabgrass; [4],10
same,"Plant response rating, Crabgrass",crabgrass; [5],10
same,Crabgrass plant response rating,crabgrass; [6],10
same,Crabgrass plant response rating,crabgrass; [9],9
same,Crabgrass plant response rating,crabgrass; [10],9
same,Rape plant response rating,rape; [8],0
same,Rape plant response rating,rape; [2],8
same,Rape plant response rating,rape; [3],6
same,"Plant response rating, Rape",rape; [4],9
same,"Plant response rating, Rape",rape; [5],10
same,Rape plant response rating,rape; [6],10
same,Rape plant response rating,rape; [9],0
same,Rape plant response rating,rape; [10],9
same,Soybean plant response rating,soybean; [8],6
same,Soybean plant response rating,soybean; [3],0
same,"Plant response rating, Soybean",soybean; [4],7
same,"Plant response rating, Soybean",soybean; [5],9
same,Soybean plant response rating,soybean; [6],9
same,Soybean plant response rating,soybean; [9],3
same,"Plant response rating, Soybean","soybean; Rate 250 g/ha, Postemergence, scale 0 to 10, 0 is no effect, 10 is complete control",6
same,Soybean plant response rating,soybean; [10],8
same,Sugarbeets plant response rating,sugar beet; [8],3
same,Sugarbeets plant response rating,sugar beet; [3],9
same,Sugarbeets plant response rating (0 to 10 scale),sugar beet; [11],10
same,"Plant response rating, Sugarbeets",sugar beet; [12],10
same,Sugarbeets plant response rating,sugar beet; [6],10
same,Sugarbeets plant response rating,sugar beet; [9],2
same,"Plant response rating, Sugarbeets",sugar beet; [13],8
same,Sugarbeets plant response rating,sugar beet; [10],8
same,Velvetleaf plant response rating,velvetleaf; [8],4
same,Velvetleaf plant response rating,velvetleaf; [3],8
same,Velvetleaf plant response rating (0 to 10 scale),velvetleaf; [11],9
same,"Plant response rating, Velvetleaf",velvetleaf; [12],10
same,Velvetleaf plant response rating,velvetleaf; [6],10
same,Velvetleaf plant response rating,velvetleaf; [9],4
same,"Plant response rating, Velvetleaf",velvetleaf; [13],7
same,Velvetleaf plant response rating,velvetleaf; [10],8
same,Wheat plant response rating,wheat; [8],6
same,Wheat plant response rating,wheat; [3],3
same,Wheat plant response rating (0 to 10 scale),wheat; [11],5
same,"Plant response rating, Wheat",wheat; [12],8
same,Wheat plant response rating,wheat; [6],8
same,Wheat plant response rating,wheat; [9],0
same,"Plant response rating, Wheat",wheat; [13],7
same,Wheat plant response rating,wheat; [10],8
same,Wild oats plant response rating,wild oat; [8],7
same,Wild oats plant response rating,wild oat; [3],7
same,Wild oats plant response rating (0 to 10 scale),wild oat; [11],7
same,"Plant response rating, Wild oats",wild oat; [12],10
same,Wild oats plant response rating,wild oat; [6],10
same,Wild oats plant response rating,wild oat; [9],3
same,"Plant response rating, Wild oats",wild oat; [13],7
same,Wild oats plant response rating,wild oat; [10],8
same,Nutsedge plant response rating,purple nutsedge; [8],7
same,Nutsedge plant response rating,purple nutsedge; [2],8
same,Nutsedge plant response rating,purple nutsedge; [3],0
same,"Plant response rating, Nutsedge",purple nutsedge; [4],0
same,"Plant response rating, Nutsedge",purple nutsedge; [5],0
same,Nutsedge plant response rating,purple nutsedge; [6],0
same,Nutsedge plant response rating,purple nutsedge; [9],5
same,Nutsedge plant response rating,purple nutsedge; [10],9
same,Rice plant response rating,rice; [14],0
same,Rice plant response rating,rice; [15],0
same,"Plant response rating, Rice",rice; [16],0
same,Rice plant response rating,rice; [17],0
same,"Plant response rating, Rice",rice; [18],0
same,Rice plant response rating,rice; [19],0
same,Rice plant response rating,rice; [20],0
same,Rice plant response rating,rice; [21],4
same,S. Flatsedge plant response rating,smallflower flatsedge; [14],0
same,S. Flatsedge plant response rating,"smallflower flatsedge; Pre-emergence, Rate 1000 g/ha, scale 0 to 10 (0 no effect, 10 complete control)",0
same,S. Flatsedge plant response rating,smallflower flatsedge; [15],0
same,"Plant response rating, S. Flatsedge",smallflower flatsedge; [16],0
same,S. Flatsedge plant response rating,smallflower flatsedge; [17],0
same,"Plant response rating, S. Flatsedge",smallflower flatsedge; [18],0
same,S. Flatsedge plant response rating,smallflower flatsedge; [19],0
same,S. Flatsedge plant response rating,smallflower flatsedge; [21],9
same,Ducksalad plant response rating,duck salad; [14],0
same,Ducksalad plant response rating,duck salad; [15],0
same,Ducksalad plant response rating,duck salad; [17],0
same,"Plant response rating, Ducksalad",duck salad; [18],0
same,Ducksalad plant response rating,duck salad; [19],0
same,Ducksalad plant response rating,duck salad; [20],1
same,Ducksalad plant response rating,duck salad; [21],8
same,Ducksalad plant response rating,duck salad; [22],0
same,Barnyardgrass plant response rating,bamyardgrass; [1],0
same,Barnyardgrass plant response rating,"bamyardgrass; Rate 125 g/ha, Postemergence section (flood test species), scale 0 to 10, 0 no effect, 10 complete control",0
same,Barnyardgrass plant response rating,bamyardgrass; [17],0
same,"Plant response rating, Barnyardgrass",bamyardgrass; [18],0
same,Barnyardgrass plant response rating,bamyardgrass; [19],4
same,Barnyardgrass plant response rating,bamyardgrass; [20],0
same,Barnyardgrass plant response rating,"bamyardgrass; Rate 2000 g/ha, Pre-emergence (as headed), scale 0 to 10, 0 no effect, 10 complete control",9
same,Barnyardgrass plant response rating,bamyardgrass; [22],0
